Experimental data as given in patent US10774084B2, “Adenine derivatives and their use as UV-photoprotective agents” (UNIVERZITA PALACKEHO V OLOMOUCI, priority 2015, dated 2020).

How the values were obtained:
[1] = system: Normal Human Epidermal Keratinocytes (NHEK); test: In vitro phototoxicity test (neutral red) on NHEK; type: cell-based
Excerpt: Normal Human Epidermal Keratinocytes (NHEK) were used as an in vitro model. Cells were isolated from tissue specimens obtained from healthy patients undergoing plastic surgery at the Department of Plastic and Aesthetic Surgery (University Hospital Olomouc). The use of skin tissue was in accordance with the Ethics Committee of the University Hospital and Faculty of Medicine and Dentistry, Palacky University, Olomouc and all patients signed written informed consent. NHEK were used between the 3rd and 4th passage. […] Intensity of UVA radiation was evaluated before each irradiation by UVA-meter. […]
After UVA exposure PBS with glucose was discarded and serum free medium was applied. After 24 hours (37° C., 5% CO2) cell damage was evaluated by neutral red (NR) incorporation into viable cells. […] After 5 minutes of intensive shaking absorbance was measured at 540 nm. […] Phototoxic effect was evaluated as % of viability of control cells that was calculated from experimental data (absorbance) according to the following equation: […]
AS . . . absorbance of sample (cells pre-incubated with test compound in serum free medium and irradiated)
AC . . . absorbance of control (cells pre-incubated with DMSO in serum free medium and irradiated)
AB . . . absorbance of background (extraction solution)

caspase-3 activity = test: UVB-induced caspase-3 activity in NHDF (Ac-DEVD-AMC); type: cell-based, human
Excerpt: Normal human dermal fibroblasts (NHDF) were used as an in vitro model. Cells were isolated from tissue specimens obtained from healthy patients undergoing plastic surgery at the Department of Plastic and Aesthetic Surgery (University Hospital Olomouc). The use of skin tissue was in accordance with the Ethics Committee of the University Hospital and Faculty of Medicine and Dentistry, Palacky University, Olomouc and all patients signed written informed consent. Fibroblasts were used between the 2nd and 4th passage. For all experiments the fibroblasts were seeded onto 6-well plates at a density of 0.5×10^5 cells/cm^2 of cultivation medium (DMEM supplemented with fetal calf serum (10%, v/v), penicillin (100 mg/ml) and streptomycin (100 U/ml)).
Test compounds included 6-(tetrahydrofuran-2-ylmethylamino)-9-(tetrahydrofuran-2-yl)purine and positive control (rosmarinic acid). […] Intensity of UVB radiation was evaluated before each irradiation by UVB-meter. […] After 4 hours (37° C., 5% CO2) cell damage was evaluated by analysis of caspase-3 activity.
Caspase-3 activity was evaluated by specific substrate (Ac-DEVD-AMC). […] Fluorescence was measured at (400/505 nm) after 1 hour incubation (37° C., dark). Protein content was analyzed spectrophotometrically by Bradford protein assay (INFINITE M200, Tecan, Switzerland). […]

SMILES	viability of NHEK cells ([1]; UVA+, 0.6 μmol/l)	viability of NHEK cells ([1]; UVA−, 12.5 μmol/l)	effect on UVB-induced activity of caspase-3 (in words) (caspase-3 activity; UVB, NHDF)	effect on caspase-3 activity in non-irradiated cells (in words) (caspase-3 activity; non-irradiated NHDF, 2.5-20 μmol/l)
CN(C)CCCN1c2ccccc2Sc2ccc(Cl)cc21 [chlorpromazine, reference compound]	below 80 % of control	below 50%		
c1nc(NCC2CCCO2)c2ncn(C3CCCO3)c2n1 (stereo not shown) [Compound 1, 6-(tetrahydrofuran-2-ylmethylamino)-9-(tetrahydrofuran-2-yl)purine]			decreased	did not showed negative effect
